The values that follow come from ChEMBL document CHEMBL5046324, “Small-Molecule Inhibitor of the Oncogenic KRASG12C Mutant for the Treatment of Currently Incurable Cancer” (ACS Med Chem Lett, 2022).

The target of assay [1] is T1, GTPase KRas (Homo sapiens, UniProt P01116, G12C). Put plainly: Inhibition of KRAS G12C mutant (2 to 188 residues) (unknown origin) expressed in Escherichia coli assessed as inhibition of SOS mediated nucleotide exchange measured after 18 hrs by HTRF assay.
Assay [2] deals with T1, GTPase KRas. Description: Inhibition of KRAS G12C mutant in human HCC1171 cells assessed as effect on cell alkylation measured after 18 hrs by western blot analysis. It is filed as cell-based. (Immunoblotting shows a protein as a band on a membrane.)
Assay [3] concerns the target T1, GTPase KRas. Put plainly: Inhibition of KRAS G12C mutant (2 to 188 residues) (unknown origin) expressed in Escherichia coli assessed as inhibition of SOS mediated nucleotide exchange at 21 degreeC for 15 mins by HTRF assay. (Time-resolved FRET reads energy transfer from a long-lived donor to a nearby acceptor.)
Assay [4] addresses T1, GTPase KRas. Description: Inhibition of KRAS G12C mutant (2 to 188 residues) (unknown origin) expressed in Escherichia coli assessed as inhibition of SOS mediated nucleotide exchange at 4 degreeC for 18 hrs by HTRF assay.

Usually IC50 stands for the midpoint of a concentration-inhibition curve. A word on the EC50: it is the concentration that produces a half-maximal response.

Molecules are shown by their SMILES.

For the compound `C=CC(=O)N1CCN(c2nc(OCc3cn(C)cn3)nc3c2CC[C@H](c2cc(O)cc4ccccc24)C3)[C@@H](C)C1`, on GTPase KRas [1], the IC50 came to 470 nM. Further, the EC50 at GTPase KRas [2] was 3000 nM.

For `C=CC(=O)N1CCN(c2nc(OC[C@@H]3CCCN3C)nc3c2CCC2(CCc4ccccc4C2)C3)C[C@@H]1CC#N` (stereo partly specified), the IC50 amounted to 142 nM on GTPase KRas [3] and 46 nM on GTPase KRas [4].

As for `C=CC(=O)N1CCN(c2nc(OC[C@@H]3CCCN3C)nc3c2CC[C@@]2(CCc4ccccc4C2)C3)C[C@@H]1CC#N`, the IC50 turned out to be 291 nM at GTPase KRas [3] and 51 nM on GTPase KRas [4]. Take `C=CC(=O)N1CCN(c2nc(OC[C@@H]3C[C@H](F)CN3C)nc3c2C[C@@H](C)[C@H](c2cc(O)cc4ccccc24)C3)[C@@H](C)C1`: the IC50 at GTPase KRas [1] was determined as 11 nM. Further, the EC50 on GTPase KRas [2] was found to be 40 nM. As for `C=CC(=O)N1CCN(c2nc(OC[C@@H]3CCCN3C)nc3c2CC[C@]2(CCc4ccccc4C2)C3)C[C@@H]1CC#N`, the IC50 on GTPase KRas [3] turned out to be 131 nM; at GTPase KRas [4] it was 60 nM. On to `C=CC(=O)N1CCN(c2nc(OC[C@@H]3CCCN3C)nc3c2C[C@@H](C)[C@H](c2cc(O)cc4ccccc24)C3)[C@@H](C)C1`, for which the EC50 on GTPase KRas [2] is less than 6.1 nM.
